Assay results from ChEMBL document CHEMBL1139566, “Discovery of AICAR Tfase inhibitors that disrupt requisite enzyme dimerization” (Bioorg Med Chem Lett, 2005).
Calls of active or inactive are those of the source. No cut-off for these calls is given here. Peptide text beside a SMILES is read from it. * marks the point of attachment. NHPhenethyl = c1ccc(CCN*)cc1; Bz = O=C(c1ccccc1)*

What follows are compounds tested against T1, Bifunctional purine biosynthesis protein ATIC (Homo sapiens, UniProt P31939) (assay: Average inhibition of AICAR formyltransferase at 25 uM and 50 uM concentration relative to cappsin 2; Inactive).
Target sequence in this assay (P31939 whole entry, looked up): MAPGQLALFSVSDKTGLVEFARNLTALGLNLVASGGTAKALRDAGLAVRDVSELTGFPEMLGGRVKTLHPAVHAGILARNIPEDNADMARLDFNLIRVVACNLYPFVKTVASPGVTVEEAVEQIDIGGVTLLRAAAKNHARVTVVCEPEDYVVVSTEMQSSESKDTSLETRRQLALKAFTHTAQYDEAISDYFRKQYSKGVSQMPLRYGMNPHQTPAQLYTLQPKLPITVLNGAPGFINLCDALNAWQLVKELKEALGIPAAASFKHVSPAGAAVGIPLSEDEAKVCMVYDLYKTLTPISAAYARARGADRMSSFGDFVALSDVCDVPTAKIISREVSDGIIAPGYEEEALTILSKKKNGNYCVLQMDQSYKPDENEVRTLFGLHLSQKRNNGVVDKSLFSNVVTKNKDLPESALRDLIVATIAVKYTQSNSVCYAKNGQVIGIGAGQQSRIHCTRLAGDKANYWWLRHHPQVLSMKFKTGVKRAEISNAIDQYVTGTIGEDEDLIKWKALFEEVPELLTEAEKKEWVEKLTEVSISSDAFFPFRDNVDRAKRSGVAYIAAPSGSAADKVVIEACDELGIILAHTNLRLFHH

SMILES	inhibition
CNC(=O)CNC(=O)CNC(=O)c1cccc(I)c1	inactive
COc1cccc(C(=O)NCC(=O)NCC(=O)NCCc2ccccc2)c1	inactive
O=C(CNC(=O)c1cccc(I)c1)NCC(=O)OCCc1ccccc1	inactive
O=C(CNC(=O)CNC(=O)c1ccccc1)NCCc1ccccc1 (Bz-Gly-Gly-NHPhenethyl)	inactive
O=C(CNC(=O)CNC(=O)c1ccccc1I)NCCc1ccccc1	inactive
Cc1cccc(C(=O)NCC(=O)NCC(=O)NCCc2ccccc2)c1	inactive
CN(CC(=O)NCCc1ccccc1)C(=O)CNC(=O)c1cccc(I)c1	inactive
COC(=O)CN(CC(=O)NCCc1ccccc1)C(=O)CNC(=O)c1cccc(I)c1	inactive
CCCNC(=O)CNC(=O)CNC(=O)c1cccc(I)c1	inactive
O=C(CNC(=O)CNC(=O)c1cccc([N+](=O)[O-])c1)NCCc1ccccc1	inactive

Each compound was assayed against T1, Bifunctional purine biosynthesis protein ATIC (assay: Inhibition constant against AICAR formyltransferase).
Target sequence in this assay (P31939 whole entry): as the sequence (P31939 whole entry, looked up) above

SMILES	Ki
COc1ccc(CNC(=O)CN(CC(=O)NCCc2ccccc2)C(=O)CNC(=O)c2cccc(I)c2)cc1	3.1 µM
O=C(CNC(=O)CNC(=O)c1cccc(I)c1)NCCc1ccccc1	8 µM
